Assay results published in patent US12377104B1, “Methods for treating a fatty liver disease” (Madrigal Pharmaceuticals, Inc., priority 2024, dated 2025).

Test system: adults with biopsy-confirmed NASH
Experiment: MAESTRO-NASH: adverse events, serious adverse events, malignancies
[1] = 80 mg (n = 322), safety population

Text: Safety end points included adverse events, biochemical assessments, and clinical assessments. Selected serious adverse events (including deaths, cardiovascular events, and potential drug-induced liver injury) were adjudicated by independent, external event-adjudication committees whose members were unaware of the trial-group assignments.

CC(C)c1cc(Oc2c(Cl)cc(-n3nc(C#N)c(=O)[nH]c3=O)cc2Cl)n[nH]c1=O [Resmetirom, 2-(3,5-dichloro-4-((5-isopropyl-6-oxo-1,6-dihydropyridazin-3-yl)oxy)phenyl)-3,5-dioxo-2,3,4,5-tetrahydro-1,2,4-triazine-6-carbonitrile]
Adverse event leading to trial discontinuation before wk 52, number of patients (80 mg): 6
Adverse event leading to trial discontinuation during entire treatment period, number of patients (80 mg): 9
Adverse event leading to trial discontinuation during entire treatment period, percent of patients (80 mg): (2.8) percent
Arthralgia, number of patients (80 mg): 48
Arthralgia, percent of patients (80 mg): (14.9) percent
Back pain, number of patients (80 mg): 35
Back pain, percent of patients (80 mg): (10.9) percent
Cancer reported, patients (80 mg): 1.2%
Covid-19, number of patients (80 mg): 69
Covid-19, percent of patients (80 mg): (21.4) percent
Diarrhea, number of patients (80 mg): 87
Diarrhea, percent of patients (80 mg): (27.0) percent
Fatal adverse event, number of patients (80 mg): 1
Fatal adverse event, percent of patients (80 mg): (0.3) percent
Fatigue, number of patients (80 mg): 33
Fatigue, percent of patients (80 mg): (10.2) percent
Grade 1: mild, number of patients (80 mg): 73
Grade 1: mild, percent of patients (80 mg): (22.7) percent
Grade 2: moderate, number of patients (80 mg): 180
Grade 2: moderate, percent of patients (80 mg): (55.9) percent
Grade 3 or higher: severe, number of patients (80 mg): 43
Grade 3 or higher: severe, percent of patients (80 mg): (13.4) percent
Major adverse cardiovascular event, number of patients (80 mg): 1
Major adverse cardiovascular event, percent of patients (80 mg): (0.3) percent
Nausea, number of patients (80 mg): 71
Nausea, percent of patients (80 mg): (22.0) percent
Other cardiovascular event, number of patients (80 mg): 0
Pruritus, number of patients (80 mg): 26
Pruritus, percent of patients (80 mg): (8.1) percent
Urinary tract infection, number of patients (80 mg): 33
Urinary tract infection, percent of patients (80 mg): (10.2) percent
≥1 Adverse event attributed to resmetirom, number of patients (80 mg): 124
≥1 Adverse event attributed to resmetirom, percent of patients (80 mg): (38.5) percent
≥1 Adverse event, number of patients (80 mg): 296
≥1 Adverse event, percent of patients (80 mg): (91.9) percent
≥1 Serious adverse event attributed to resmetirom, number of patients (80 mg): 2
≥1 Serious adverse event attributed to resmetirom, percent of patients (80 mg): (0.6) percent
≥1 Serious adverse event, number of patients (80 mg): 35
Malignancy: Basal cell carcinoma (80 mg (N = 322)): 2 (0.6) n (%)
Malignancy: Breast carcinoma (80 mg (N = 322)): 1 (0.3) n (%)
Malignancy: Malignant melanoma (80 mg (N = 322)): 0 n (%)
Malignancy: Skin cancer (squamous cell) (80 mg (N = 322)): 1 (0.3) n (%)
Patients with any malignancy (80 mg (N = 322)): 4 (1.2) n (%)
Patients with at least one TE-SAEs (80 mg (N = 322)): 35 (10.9) n (%)
SAE: Acute Gallstone-related disorders (80 mg (N = 322)): 3 (0.9) n (%)
SAE: COVID-19 (80 mg (N = 322)): 1 (0.3) n (%)
SAE: COVID-19 pneumonia (80 mg (N = 322)): 2 (0.6) n (%)
SAE: Cardiac disorders (80 mg (N = 322)): 3 (0.9) n (%)
SAE: Gastrointestinal disorders (80 mg (N = 322)): 3 (0.9) n (%)
SAE: General disorders and administration site conditions (80 mg (N = 322)): 2 (0.6) n (%)
SAE: Infections and infestations (80 mg (N = 322)): 12 (3.7) n (%)
SAE: Injury, poisoning and procedural complications (80 mg (N = 322)): 3 (0.9) n (%)
SAE: Musculoskeletal and connective tissue disorders (80 mg (N = 322)): 7 (2.2) n (%)
SAE: Nervous system disorders (80 mg (N = 322)): 3 (0.9) n (%)
SAE: Post procedural haemorrhage (80 mg (N = 322)): 1 (0.3) n (%)
SAE: Respiratory, thoracic and mediastinal disorders (80 mg (N = 322)): 3 (0.9) n (%)
Adverse event: Abdominal distension [1]: 14 (4.3) no. (%)
Adverse event: Abdominal pain [1]: 23 (7.1) no. (%)
Adverse event: Abdominal pain upper [1]: 23 (7.1) no. (%)
Adverse event: Constipation [1]: 21 (6.5) no. (%)
Adverse event: Cough [1]: 14 (4.3) no. (%)
Adverse event: Decreased appetite [1]: 5 (1.6) no. (%)
Adverse event: Dizziness [1]: 20 (6.2) no. (%)
Adverse event: Gastrooesophageal reflux disease [1]: 16 (5.0) no. (%)
Adverse event: Headache [1]: 30 (9.3) no. (%)
Adverse event: Hypertension [1]: 16 (5.0) no. (%)
Adverse event: Muscle spasms [1]: 14 (4.3) no. (%)
Adverse event: Nasopharyngitis [1]: 14 (4.3) no. (%)
Adverse event: Pain in extremity [1]: 12 (3.7) no. (%)
Adverse event: Procedural pain [1]: 16 (5.0) no. (%)
Adverse event: Rash [1]: 12 (3.7) no. (%)
Adverse event: Sinusitis [1]: 10 (3.1) no. (%)
Adverse event: Type 2 diabetes [1]: 24 (7.5) no. (%)
Adverse event: Upper respiratory tract infection [1]: 23 (7.1) no. (%)
Adverse event: Vomiting [1]: 28 (8.7) no. (%)
Adverse event leading to trial discontinuation before wk 52, number of patients (100 mg): 22
Adverse event leading to trial discontinuation during entire treatment period, number of patients (100 mg): 25
Adverse event leading to trial discontinuation during entire treatment period, percent of patients (100 mg): (7.7) percent
